The values that follow come from patent US4310682A, “Halo-salicylanilide” (priority 1979, dated 1982).

Bounds are passed on as bounds.

Holding throughout (format): cell-based
Assay [1] deals with Pseudomonas aeruqinosa NC-5. The assay is described as follows: MIC, agar medium containing the compound. As to conditions: bacterium No. 2, 37° C., 4 hours. As to the method:
(§1) In order to test antifungal and bactericidal activity of halo-salicylanilide obtained in above mentioned Examples, following bacteria and fungi are employed.
No. 2 Pseudomonas aeruqinosa NC-5
(§2) Bacteria No. 1 to No. 4 are respectively cultured in Hart Infusion bouillon medium at 37° C. for 20 hours and resulting medium liquids are employed for said test. Fungi No. 5 to No. 7 are respectively cultured in Sabouraud agar medium and 10^6 cell/ml of cell dispersing liquids obtained from said medium are employed for said test.

The subject of assay [2] is Staphylococcus aureus FDA-209-P. The assay is described as follows: MIC, agar medium containing the compound. To be noted: bacterium No. 3, 37° C., 4 hours. The procedure: as §1
No. 3 Staphylococcus aureus FDA-209-P
as §2

The subject of assay [3] is Trichophyton rubrum IFO 9185. The experiment in a line: MIC, Sabouraud agar medium containing the compound. To be noted: fungus No. 7, 20° C., 14 days. As to the method:
as §1
No. 7 Trichophyton rubrum IFO 9185
as §2

The test system of assay [4] is Candida albicans ATCC 10259. The experiment in a line: MIC, Sabouraud agar medium containing the compound. To be noted: fungus No. 5, 20° C., 14 days. As to the method:
as §1
No. 5 Candida albicans ATCC 10259
as §2

Assay [5] deals with Escherichia coli NIHJ JC-2. The experiment in a line: MIC, agar medium containing the compound. To be noted: bacterium No. 1, 37° C., 4 hours. The procedure:
as §1
No. 1 Escherichia coli NIHJ JC-2
as §2

The subject of assay [6] is Bacillus subtilis PCI-219. The assay is described as follows: MIC, agar medium containing the compound. As to conditions: bacterium No. 4, 37° C., 4 hours. The procedure:
as §1
No. 4 Bacillus subtilis PCI-219
as §2

In assay [7] the test system is Aspergillus flavus IFO 8558. The assay is described as follows: MIC, Sabouraud agar medium containing the compound. As to conditions: fungus No. 6, 20° C., 14 days. As to the method: as §1
No. 6 Aspergillus flavus IFO 8558
as §2

“5-bromo-2'-methyl-4'-acetylsalicylanilide [compound 11]”: the “MIC (Minimum Inhibitory Concentration)” value in assay [1] is listed as greater than 100; in assay [2], 0.2; in assay [3] it was 0.8; in assay [4] it was 100; in assay [5], greater than 100; in assay [6] it was 0.4.
Turning to “5-chloro-2'-methyl-4'-bromo chloro salicylanilide [compound 7]”, the “MIC (Minimum Inhibitory Concentration)” value in assay [1] was greater than 100; in assay [2], 0.8; in assay [3], 25; in assay [4], 100; in assay [5], greater than 100; in assay [6], 0.8.
As for `O=C(Nc1ccc(Cl)cc1)c1cc(Br)ccc1O` [Contrast No. 1, reference compound], the “MIC (Minimum Inhibitory Concentration)” value in assay [1] is listed as greater than 100; in assay [3] it was 50; in assay [4], greater than 100; in assay [7] it was greater than 100; in assay [5], greater than 100.
Regarding `C=CCCCCCCCCC(=O)O` [Contrast No. 3, undecylenic acid, reference compound], the “MIC (Minimum Inhibitory Concentration)” value is listed as greater than 100 in assay [2]; 50 in assay [3]; 50 in assay [7]; greater than 100 in assay [5]; greater than 100 in assay [6].
For `COC1=CC(=O)C[C@@H](C)[C@]12Oc1c(Cl)c(OC)cc(OC)c1C2=O` [Contrast No. 4, griseo fulvin, reference compound], the “MIC (Minimum Inhibitory Concentration)” value in assay [2] is greater than 100; in assay [3], 25; in assay [7], 25; in assay [5], greater than 100; in assay [6], greater than 100.
Regarding `Cc1cc(Cl)ccc1NC(=O)c1cc(Br)ccc1O` [compound 1, 5-bromo-2'-methyl-4'-chloro salicylanilide], the “MIC (Minimum Inhibitory Concentration)” value in assay [1] is reported as greater than 100; in assay [2], 0.8; in assay [3], 50; in assay [4] it was 50; in assay [7], 50; in assay [5], greater than 100. Further, in assay [6], the “MIC (Minimum Inhibitory Concentration)” value is 0.8.
With `Cc1cc(Br)ccc1NC(=O)c1cc(Cl)ccc1O` [compound 2, 5-chloro-2'-methyl-4'-bromo salicyl anilide], the “MIC (Minimum Inhibitory Concentration)” value is on record as greater than 100 in assay [1]; 0.8 in assay [2]; 50 in assay [3]; 50 in assay [4]; 50 in assay [7]; greater than 100 in assay [5]. In assay [6], the “MIC (Minimum Inhibitory Concentration)” value stood at 0.8.
For the molecule `CC(=O)Oc1ccc(Cl)cc1C(=O)Nc1ccc(Cl)cc1C` [compound 4, 5-chloro-2'-methyl-4' chloro-acetyl salcylanilide], the “MIC (Minimum Inhibitory Concentration)” value is greater than 100 in assay [1]; 0.1 in assay [2]; 0.2 in assay [3]; 100 in assay [4]; greater than 100 in assay [5]; 0.2 in assay [6].
For `CC(=O)Oc1ccc(Cl)cc1C(=O)Nc1ccc(Br)cc1C` [compound 8, 5-chloro-2'-methyl-4'-bromo acetylsalicylanilide], the “MIC (Minimum Inhibitory Concentration)” value in assay [1] is greater than 100; in assay [2] it was 0.8; in assay [3] it was less than 0.8; in assay [4], 100; in assay [5] it was greater than 100; in assay [6] it was 0.8.
Turning to `CC(=O)Oc1ccc(Br)cc1C(=O)Nc1ccc(Cl)cc1C` [compound 9, 5-bromo-2'-methyl-4'-chloro acetylsalicylanilide], the “MIC (Minimum Inhibitory Concentration)” value was greater than 100 in assay [1]; 0.8 in assay [2]; 25 in assay [3]; 100 in assay [4]; greater than 100 in assay [5]; 0.8 in assay [6].
Take `Cc1cc(Br)ccc1NC(=O)c1cc(Br)ccc1O` [compound 10, 5-bromo-2'-methyl-4'-bromo salicylanilide]: the “MIC (Minimum Inhibitory Concentration)” value is given as greater than 100 in assay [1]; 0.2 in assay [2]; 0.8 in assay [3]; 100 in assay [4]; greater than 100 in assay [5]; 0.4 in assay [6].
On to `CC(=O)Oc1ccc(I)cc1C(=O)Nc1ccc(Cl)cc1C` [compound 12, 5-iodo-2'-methyl-4'-chloro acetylsalicylanilide], for which the “MIC (Minimum Inhibitory Concentration)” value is on record as 100 in assay [1]; 0.8 in assay [2]; 0.8 in assay [3]; 100 in assay [4]; greater than 100 in assay [5]; 0.8 in assay [6].
For `Cc1cc(Cl)ccc1NC(=O)c1cc(F)ccc1O` [compound 14, 5-fluoro-2'-methyl-4'-chloro salicylanilide], the “MIC (Minimum Inhibitory Concentration)” value in assay [1] is reported as 100; in assay [2], 0.4; in assay [3] it was less than 0.8; in assay [4], 100; in assay [5] it was greater than 100; in assay [6], 0.4.
Turning to `CC(=O)Oc1ccc(F)cc1C(=O)Nc1ccc(Cl)cc1C` [compound 15, 5-fluoro-2'-methyl-4'-chloro acetylsalicylanilide], the “MIC (Minimum Inhibitory Concentration)” value was 100 in assay [1]; 0.4 in assay [2]; less than 0.8 in assay [3]; 100 in assay [4]; greater than 100 in assay [5]; 0.4 in assay [6].
As for `Cc1cc(Br)ccc1NC(=O)c1cc(F)ccc1O` [compound 16, 5-fluoro-2'-methyl-4'-bromo salicylanilide], the “MIC (Minimum Inhibitory Concentration)” value in assay [1] is 100; in assay [2], 0.4; in assay [3] it was less than 0.8; in assay [4] it was 100; in assay [5] it was greater than 100; in assay [6] it was 0.4.
Consider `CC(=O)Oc1ccc(F)cc1C(=O)Nc1ccc(Br)cc1C` [compound 17, 5-fluoro-2'-methyl-4'-bromo acetylsalicylanilide], for which the “MIC (Minimum Inhibitory Concentration)” value in assay [1] is 100; in assay [2], 0.4; in assay [3], less than 0.8; in assay [4] it was 100; in assay [5] it was greater than 100; in assay [6], 0.4.
In the case of `Cc1cc(I)ccc1NC(=O)c1cc(F)ccc1O` [compound 18, 5-fluoro-2'-methyl-4'-iodo salicylanilide], the “MIC (Minimum Inhibitory Concentration)” value is reported as 100 in assay [1]; 0.4 in assay [2]; less than 0.8 in assay [3]; 100 in assay [4]; greater than 100 in assay [5]; 0.4 in assay [6].
As for `CC(=O)Oc1ccc(F)cc1C(=O)Nc1ccc(I)cc1C` [compound 19, 5-fluoro-2'-methyl-4'-iodo acetylsalicylanilide], the “MIC (Minimum Inhibitory Concentration)” value in assay [1] is listed as 100; in assay [2] it was 0.4; in assay [3] it was less than 0.8; in assay [4], 100; in assay [5], greater than 100; in assay [6] it was 0.4.
